In patent US11608335B2, “Somatostatin modulators and uses thereof” (CRINETICS PHARMACEUTICALS, INC., priority 2018, dated 2023):

Columns and labels:
[1] = molecular target: T1, human somatostatin receptor subtype 2 (Homo sapiens, UniProt P30874); assay: cAMP assay for SST2R (inhibition of cAMP via human SST2 receptor); assay type: cell-based; settings: Table B, read-out: SST2 potency
T1 construct: expressed in transfected cells
Source text: cAMP Assay Protocol for SST2R:

[2] = molecular target: human somatostatin receptor subtype 5 (Homo sapiens, UniProt P35346); assay: cAMP assay for SST5R (inhibition of cAMP via human SST5 receptor)
Chain of human somatostatin receptor subtype 5 (P35346 whole entry): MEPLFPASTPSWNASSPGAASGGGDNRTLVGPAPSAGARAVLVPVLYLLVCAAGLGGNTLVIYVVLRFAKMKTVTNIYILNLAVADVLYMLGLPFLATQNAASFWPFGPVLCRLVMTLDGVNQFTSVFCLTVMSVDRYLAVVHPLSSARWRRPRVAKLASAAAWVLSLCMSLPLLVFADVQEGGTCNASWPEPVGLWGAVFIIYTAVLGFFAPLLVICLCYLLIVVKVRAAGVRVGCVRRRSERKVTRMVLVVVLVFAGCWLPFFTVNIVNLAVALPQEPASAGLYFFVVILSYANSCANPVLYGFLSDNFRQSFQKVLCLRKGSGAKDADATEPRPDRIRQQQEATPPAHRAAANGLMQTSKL

T1 sequence (P30874 whole entry): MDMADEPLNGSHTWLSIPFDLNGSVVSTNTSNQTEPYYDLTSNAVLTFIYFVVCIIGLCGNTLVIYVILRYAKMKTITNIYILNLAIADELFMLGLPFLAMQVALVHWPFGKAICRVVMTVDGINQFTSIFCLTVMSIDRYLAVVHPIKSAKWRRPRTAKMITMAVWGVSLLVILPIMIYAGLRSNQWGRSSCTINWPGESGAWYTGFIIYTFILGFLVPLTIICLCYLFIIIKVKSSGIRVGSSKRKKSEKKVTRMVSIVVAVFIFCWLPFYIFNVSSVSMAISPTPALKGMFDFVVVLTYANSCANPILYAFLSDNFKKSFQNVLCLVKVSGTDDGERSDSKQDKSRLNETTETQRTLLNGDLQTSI

SMILES | EC50 [1] [nM] | EC50 [2] [nM]
Cc1cc(F)cc(-c2cncc(-c3nc4cc(F)ccc4[nH]3)c2N2CC(CN)C2)c1 [Compound 1-1, 1-{1-[3-(5-fluoro-1H-1,3-benzodiazol-2-yl)-5-(3-fluoro-5-methylphenyl)pyridin-4-yl]azetidin-3-yl}methanamine] | > 1000 | 
Cc1cc(F)cc(-c2cncc(-c3nc4c(F)cccc4[nH]3)c2N2CC(CN)C2)c1 [Compound 1-2, 1-{1-[3-(4-fluoro-1H-1,3-benzodiazol-2-yl)-5-(3-fluoro-5-methylphenyl)pyridin-4-yl]azetidin-3-yl}methanamine] | > 1000 | 
Cn1c(-c2cncc(-c3ccc(F)c(C#N)c3)c2N2CC[C@H](N)C2)nc2cccc(Cl)c21 [Compound 2-133, 5-{4-[(3S)-3-aminopyrrolidin-1-yl]-5-(7-chloro-1-methyl-1H-1,3-benzodiazol-2-yl)pyridin-3-yl}-2-fluorobenzonitrile] |  | < 10
Cc1cccc2nc(-c3cncc(-c4ccc(F)c(C#N)c4)c3N3CC[C@H](N)C3)n(C)c12 [Compound 2-134, 5-{4-[(3S)-3-aminopyrrolidin-1-yl]-5-(1,7-dimethyl-1H-1,3-benzodiazol-2-yl)pyridin-3-yl}-2-fluorobenzonitrile] |  | < 10
Cc1cccc2nc(-c3cncc(-c4cc(F)cc(C#N)c4)c3N3CC[C@](N)(CO)C3)[nH]c12 [Compound 2-136, 3-{4-[(3R)-3-amino-3-(hydroxymethyl)pyrrolidin-1-yl]-5-(4-methyl-1H-1,3-benzodiazol-2-yl)pyridin-3-yl}-5-fluorobenzonitrile] |  | 10 to 100
Cc1cccc2cc(-c3cncc(-c4cc(F)cc(C#N)c4)c3N3CC[C@H](N)C3)[nH]c12 [Compound 2-137, 3-{4[(3S)-3-aminopyrrolidin-1-yl]-5-(7-methyl-1H-indol-2-yl)pyridin-3-yl}-5-fluorobenzonitrile] |  | 10 to 100
Cc1cccc2nc(-c3cncc(-c4cccc(C(N)=O)c4F)c3N3CCC(C)(N)C3)[nH]c12 (centres unmarked) [Compound 2-138, 3-[4-(3-amino-3-methylpyrrolidin-1-yl)-5-(4-methyl-1H-1,3-benzodiazol-2-yl)pyridin-3-yl]-2-fluorobenzamide] |  | < 10
Cn1c(-c2cncc(-c3ccnc(C#N)c3)c2N2CC[C@](C)(N)C2)nc2c(F)cccc21 [Compound 2-150, 4-[(3S)-3-amino-3-methylpyrrolidin-1-yl]-5-(4-fluoro-1-methyl-1H-1,3-benzodiazol-2-yl)-[3,4′-bipyridine]-2′-carbonitrile] |  | < 10
Cn1c(-c2cncc(-c3ccnc(C#N)c3)c2N2CC[C@](C)(N)C2)nc2c(Cl)cccc21 [Compound 2-151, 4-[(3S)-3-amino-3-methylpyrrolidin-1-yl]-5-(4-chloro-1-methyl-1H-1,3-benzodiazol-2-yl)-[3,4′-bipyridine]-2′-carbonitrile] |  | < 10

The remaining lines, values ahead:

EC50 [1] [nM] | EC50 [2] [nM] | SMILES
100 to 1000 |  | Cc1cc(F)cc(-c2cncc(-c3nc4c(F)cc(F)cc4[nH]3)c2N2CC[C@H](N)C2)c1 (stereo in doubt) [Compound 2-194, 1-[3-(4,6-difluoro-1H-1,3-benzodiazol-2-yl)-5-(3-fluoro-5-methylphenyl)pyridin-4-yl]pyrrolidin-3-amine]
 | < 10 | Cc1cccc2c1nc(-c1cncc(-c3ccnc(C#N)c3)c1N1CC[C@](C)(N)C1)n2C [Compound 2-152, 4-[(3S)-3-amino-3-methylpyrrolidin-1-yl]-5-(1,4-dimethyl-1H-1,3-benzodiazol-2-yl)-[3,4′-bipyridine]-2′-carbonitrile]
 | < 10 | Cn1c(-c2cncc(-c3cccc(C#N)c3)c2N2CC[C@](C)(N)C2)nc2c(F)cccc21 [Compound 2-153, 3-{4-[(3S)-3-amino-3-methylpyrrolidin-1-yl]-5-(4-fluoro-1-methyl-1H-1,3-benzodiazol-2-yl)pyridin-3-yl}benzonitrile]
 | < 10 | Cc1cccc2[nH]c(-c3cncc(-c4ccnc(C(N)=O)c4)c3N3CC[C@](C)(N)C3)nc12 [Compound 2-156, 4-[(3S)-3-amino-3-methylpyrrolidin-1-yl]-5-(4-methyl-1H-1,3-benzodiazol-2-yl)-[3,4′-bipyridine]-2′-carboxamide]
 | < 10 | N#Cc1cc(-c2cncc(-c3nc4cccc(C#N)c4[nH]3)c2N2CC[C@H](N)C2)ccc1F [Compound 2-158, 2-{4-[(3S)-3-aminopyrrolidin-1-yl]-5-(3-cyano-4-fluorophenyl)pyridin-3-yl}-1H-1,3-benzodiazole-4-carbonitrile]
 | < 10 | Cc1nccc2nc(-c3cncc(-c4ccc(F)c(C#N)c4)c3N3CCC(C)(N)C3)[nH]c12 (centres unmarked) [Compound 2-159, 5-[4-(3-amino-3-methylpyrrolidin-1-yl)-5-{4-methyl-3H-imidazo[4,5-c]pyridin-2-yl}pyridin-3-yl]-2-fluorobenzonitrile]
 | < 10 | CC1(N)CCN(c2c(-c3ccnc(C#N)c3)cncc2-c2nc3cccc(C#N)c3[nH]2)C1 (centres unmarked) [Compound 2-160, 4-(3-amino-3-methylpyrrolidin-1-yl)-5-(4-cyano-1H-1,3-benzodiazol-2-yl)-[3,4′-bipyridine]-2′-carbonitrile]
 | < 10 | N#Cc1cc(-c2cncc(-c3nc4cccc(Cl)c4[nH]3)c2N2CC[C@H](N)C2)ccn1 [Compound 2-161, 4-[(3S)-3-aminopyrrolidin-1-yl]-5-(4-chloro-1H-1,3-benzodiazol-2-yl)-[3,4′-bipyridine]-2′-carbonitrile]
 | < 10 | C[C@]1(N)CCN(c2c(-c3ccc(F)c(C#N)c3)cncc2-c2nc3ncc(F)cc3[nH]2)C1 [Compound 2-168, 5-{4-[(3S)-3-amino-3-methylpyrrolidin-1-yl]-5-{6-fluoro-1H-imidazo[4,5-b]pyridin-2-yl}pyridin-3-yl}-2-fluorobenzonitrile]
 | < 10 | Cc1ccnc2[nH]c(-c3cncc(-c4cc(F)cc(C(N)=O)c4)c3N3CC[C@](C)(N)C3)nc12 [Compound 2-169, 3-{4-[(3S)-3-amino-3-methylpyrrolidin-1-yl]-5-{7-methyl-1H-imidazo[4,5-b]pyridin-2-yl}pyridin-3-yl}-5-fluorobenzamide]
 | < 10 | Cc1cc(C)c2nc(-c3cncc(-c4cccc(C#N)c4)c3N3CC[C@](C)(N)C3)[nH]c2n1 [Compound 2-173, 3-{4-[(3S)-3-amino-3-methylpyrrolidin-1-yl]-5-{5,7-dimethyl-1H-imidazo[4,5-b]pyridin-2-yl}pyridin-3-yl}benzonitrile]
 | < 10 | Cc1cc(C)c2[nH]c(-c3cncc(-c4ccc(F)c(C#N)c4)c3N3CC[C@](C)(N)C3)nc2n1 [Compound 2-174, 5-{4-[(3S)-3-amino-3-methylpyrrolidin-1-yl]-5-{5,7-dimethyl-1H-imidazo[4,5-b]pyridin-2-yl}pyridin-3-yl}-2-fluorobenzonitrile]
 | < 10 | C[C@]1(N)CCN(c2c(-c3ccc(F)c(C#N)c3)cncc2-c2nc3c(C#N)ccnc3[nH]2)C1 [Compound 2-176, 2-{4-[(3S)-3-amino-3-methylpyrrolidin-1-yl]-5-(3-cyano-4-fluorophenyl)pyridin-3-yl}-1H-imidazo[4,5-b]pyridine-7-carbonitrile]
 | 10 to 100 | COc1ccc(-c2cncc(-c3nc4c(C#N)ccnc4[nH]3)c2N2CC[C@](C)(N)C2)cc1C#N [Compound 2-179, 2-{4-[(3S)-3-mino-3-methylpyrrolidin-1-yl]-5-(3-cyano-4-methoxyphenyl)pyridin-3-yl}-1H-imidazo[4,5-b]pyridine-7-carbonitrile]
